The target of data set [1] is T1, PPARγ-RXRα heterodimer (Homo sapiens, UniProt P37231).
T1 construct: expressed in transfected cells; host or cells: CHO-K1
T1 sequence (P37231 1-505): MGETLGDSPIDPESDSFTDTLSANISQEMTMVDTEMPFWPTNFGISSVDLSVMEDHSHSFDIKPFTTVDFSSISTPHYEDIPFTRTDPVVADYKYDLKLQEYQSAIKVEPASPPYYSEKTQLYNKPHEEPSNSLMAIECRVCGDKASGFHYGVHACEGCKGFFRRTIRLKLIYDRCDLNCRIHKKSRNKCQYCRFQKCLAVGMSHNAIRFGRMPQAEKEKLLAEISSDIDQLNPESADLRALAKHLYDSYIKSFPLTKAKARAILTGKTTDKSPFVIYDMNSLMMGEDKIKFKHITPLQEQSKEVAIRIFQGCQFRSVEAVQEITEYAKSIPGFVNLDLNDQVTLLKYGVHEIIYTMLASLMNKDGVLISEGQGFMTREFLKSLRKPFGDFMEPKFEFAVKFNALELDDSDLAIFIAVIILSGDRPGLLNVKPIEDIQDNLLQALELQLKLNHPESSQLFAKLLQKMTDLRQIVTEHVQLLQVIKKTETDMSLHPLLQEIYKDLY
T1 sequence (P19793 1-462 partner): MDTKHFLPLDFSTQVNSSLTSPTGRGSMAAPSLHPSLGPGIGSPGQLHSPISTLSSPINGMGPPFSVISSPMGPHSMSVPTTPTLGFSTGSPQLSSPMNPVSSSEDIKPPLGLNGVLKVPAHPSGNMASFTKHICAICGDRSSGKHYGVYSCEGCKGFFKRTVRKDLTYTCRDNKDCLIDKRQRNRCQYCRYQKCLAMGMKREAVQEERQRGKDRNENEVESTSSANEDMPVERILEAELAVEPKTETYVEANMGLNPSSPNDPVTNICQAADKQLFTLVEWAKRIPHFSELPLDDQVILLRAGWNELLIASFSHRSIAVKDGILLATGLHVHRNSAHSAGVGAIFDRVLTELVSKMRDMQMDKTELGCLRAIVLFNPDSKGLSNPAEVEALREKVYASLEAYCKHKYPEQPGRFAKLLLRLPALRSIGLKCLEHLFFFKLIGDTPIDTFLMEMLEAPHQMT
Nature of the data set: PPARγ-RXRα heterodimer ligand activity (luciferase reporter). It counts as cell-based. Particulars: PPARγ:RXRα:4ERPP/CHO-K1 cells, 18-24 hr, concentration showing 50% of the maximum induction rate. As for the experimental part:
The PPARγ:RXRα:4ERPP/CHO-K1 cells described in WO03/099793 were cultured in a Ham F12 medium [manufactured by Life Technologies, Inc., US] containing 10% calf fetal serum [manufactured by Life Technologies, Inc., US], sown in a 96-well white plate [manufactured by Corning Coster Corporation, US] at 2×10^4 cells/well, and incubated overnight in a carbon dioxide gas incubator at 37° C.
Then, the medium was removed from the 96 well white plate, 80 μl of Ham F12 medium containing 0.1% fatty acid-free bovine serum albumin (BSA) and a test compound (20 μl) were added, and the cells were incubated for 18-24 hr in a carbon dioxide gas incubator at 37° C. The medium was removed, 40 μl of PicaGene 7.5 (manufactured by Wako Pure Chemical Industries, Ltd.) diluted 2-fold with HBSS (HANKS' BALANCED SALT SOLUTION) [manufactured by BIO WHITTAKER, US] was added. After stirring, the luciferase activity was determined using the 1420 ARVO Multilabel Counter [manufactured by PerkinElmer, US].
The induction rate was calculated from the luciferase activity of each test compound based on the luciferase activity of the test compound non-administration group as 1. The test compound concentration and the induction rate were analyzed by PRISM [manufactured by GraphPad Software, Inc., US] to calculate EC50 value (compound concentration showing 50% of the maximum value of induction rate) of the test compound.

Structures are written as SMILES. pEC50: −log10 of the molar value. Where a name gives a salt, the structure may show the parent alone.

For orientation: pEC50 means the EC50 on a negative log10 scale, so that one unit is a factor of ten. The low end stands for a large EC50, the high end for a small EC50. Usually melting point stands for the temperature of the solid-liquid transition.

In turn, `CC(C)Oc1cc(CCCOc2nn(Cc3ccccc3)cc2CC(=O)O)n(Cc2ccc(Cl)cc2OC(C)C)n1` [Example 71, (1-benzyl-3-{3-[1-(4-chloro-2-isopropoxybenzyl)-3-isopropoxy-1H-pyrazol-5-yl]propoxy}-1H-pyrazol-4-yl)acetic acid] had a pEC50 in data set [1] of 7.41.

As to `CCCOc1cc(CCCOc2c(CC(=O)O)cccc2OC)n(C(C)c2ccc(Cl)cc2Cl)n1` (stereo not shown) [Example 19, [2-(3-{1-[1-(2,4-dichlorophenyl)ethyl]-3-propoxy-1H-pyrazol-5-yl}propoxy)-3-methoxyphenyl]acetic acid], the negative logarithm of the EC50 (pEC50) in data set [1] was 8.49.

In turn, `CCCOc1cc(CCCOc2c(CC(=O)O)cccc2OC)n(Cc2ccccc2OC)n1` [Example 83, (2-{3-[1-(2-methoxybenzyl)-3-propoxy-1H-pyrazol-5-yl]propoxy}-3-methoxyphenyl)acetic acid] displayed a melting point of 79 to 82 °C. This compound also gave a negative-log EC50 (pEC50) in data set [1] of 7.74.

Regarding `CC(C)c1cc(CCCOc2nn(Cc3ccccc3)cc2CC(=O)O)n(Cc2ccc(C(F)(F)F)cc2Cl)n1` [Example 75, [1-benzyl-3-(3-{1-[2-chloro-4-(trifluoromethyl)benzyl]-3-isopropyl-1H-pyrazol-5-yl}propoxy)-1H-pyrazol-4-yl]acetic acid], the negative-log EC50 (pEC50) in data set [1] was 8.72.

For the compound `CC(C)c1cc(CCCOc2nn(Cc3ccccc3)cc2CC(=O)O)n(Cc2ccc(Cl)cc2Cl)n1` [Example 34, (1-benzyl-3-{3-[1-(2,4-dichlorobenzyl)-3-isopropyl-1H-pyrazol-5-yl]propoxy}-1H-pyrazol-4-yl)acetic acid 1/2 calcium salt], in data set [1], the pEC50 is 8.77.

Compound `Cc1cc(C(F)(F)F)ccc1Cn1nc(OC(C)C)cc1CCCOc1ncccc1CC(=O)O` [Example 80, [2-(3-{3-isopropoxy-1-[2-methyl-4-(trifluoromethyl)benzyl]-1H-pyrazol-5-yl}propoxy)pyridin-3-yl]acetic acid] showed a melting point of 105 to 107 °C. Besides, the negative logarithm of the EC50 (pEC50) in data set [1] was 8.27.

In turn, `CC(C)Oc1ccc(CCCOc2cc(CCC(=O)O)n(C3CCCCC3)n2)c(Oc2ncc(C(F)(F)F)cc2Cl)c1` [Example 144, 3-{3-[3-(2-{[3-chloro-5-(trifluoromethyl)pyridin-2-yl]oxy}-4-isopropoxyphenyl)propoxy]-1-cyclohexyl-1H-pyrazol-5-yl}propanoic acid] came in with a melting point of 114 to 115 °C. The pEC50 in data set [1] was 8.43.

In the case of `CC(C)Oc1cc(CCCOc2nn(Cc3ccccc3)cc2CC(=O)O)n(Cc2ccc(F)cc2Cl)n1` [Example 92, (1-benzyl-3-{3-[1-(2-chloro-4-fluorobenzyl)-3-isopropoxy-1H-pyrazol-5-yl]propoxy}-1H-pyrazol-4-yl)acetic acid], the melting point was 121 to 123 °C. The same compound gave a negative-log EC50 (pEC50) in data set [1] of 8.29.

Turning to `CC(C)Oc1cc(CCCOc2ncccc2CC(=O)O)n(Cc2ccc(F)cc2Cl)n1` [Example 93, (2-{3-[1-(2-chloro-4-fluorobenzyl)-3-isopropoxy-1H-pyrazol-5-yl]propoxy}pyridin-3-yl)acetic acid], the melting point was 90 to 91 °C. The same compound had a pEC50 in data set [1] of 7.38.

In the case of `CC(C)c1cc(CCCOc2nn(C)cc2CC(=O)O)n(Cc2ccc(Cl)cc2Cl)n1` [Example 33, (3-{3-[1-(2,4-dichlorobenzyl)-3-isopropyl-1H-pyrazol-5-yl]propoxy}-1-methyl-1H-pyrazol-4-yl)acetic acid], the melting point was 67 to 68 °C. The compound further showed a negative logarithm of the EC50 (pEC50) in data set [1] of 7.52.

`CCCOc1cc(CCCOc2c(CC(=O)O)cccc2OC)n(Cc2ccc(F)cc2F)n1` [Example 82, (2-{3-[1-(2,4-difluorobenzyl)-3-propoxy-1H-pyrazol-5-yl]propoxy}-3-methoxyphenyl)acetic acid] displayed a melting point of 77 to 80 °C. In addition, the pEC50 in data set [1] is 7.59.

The compound `CCCOc1cc(CCCOc2c(CC(=O)O)cccc2OC)n(Cc2ccc(C(F)(F)F)cc2)n1` [Example 59, [3-methoxy-2-(3-{3-propoxy-1-[4-(trifluoromethyl)benzyl]-1H-pyrazol-5-yl}propoxy)phenyl]acetic acid] yielded a melting point of 122 to 123 °C. The same compound had a pEC50 in data set [1] of 7.64.

The compound `CC(C)Oc1ccc(CCCOc2nn(Cc3ccccc3)cc2CC(=O)O)c(Oc2ncc(Cl)cc2Cl)c1` [Example 133, [1-benzyl-3-(3-{2-[(3,5-dichloropyridin-2-yl)oxy]-4-isopropoxyphenyl}propoxy)-1H-pyrazol-4-yl]acetic acid] registered a melting point of 111 to 113 °C. In addition, the pEC50 in data set [1] was 8.92.

For the compound `CC(C)OCCOc1ccc(CCCOc2nn(C)cc2CC(=O)O)c(Oc2ncc(C(F)(F)F)cc2Cl)c1` [Example 177, (3-{3-[2-{[3-chloro-5-(trifluoromethyl)pyridin-2-yl]oxy}-4-(2-isopropoxyethoxy)phenyl]propoxy}-1-methyl-1H-pyrazol-4-yl)acetic acid], the melting point lay in the range of 103.5 to 104.5 °C. In data set [1], this compound had a negative logarithm of the EC50 (pEC50) of 8.82.

The compound `CC(C)c1cc(CCCOc2ncccc2CC(=O)O)n(Cc2ccc(Cl)cc2Cl)n1` [Example 37, (2-{3-[1-(2,4-dichlorobenzyl)-3-isopropyl-1H-pyrazol-5-yl]propoxy}pyridin-3-yl)acetic acid] displayed a melting point of 111 to 112 °C. Moreover, the pEC50 in data set [1] was 8.19.

Turning to `Cc1cc(Cl)ccc1Cn1nc(OC(C)C)cc1CCCOc1nn(Cc2ccccc2)cc1CC(=O)O` [Example 73, (1-benzyl-3-{3-[1-(4-chloro-2-methylbenzyl)-3-isopropoxy-1H-pyrazol-5-yl]propoxy}-1H-pyrazol-4-yl)acetic acid], the melting point lay within 81 to 82 °C. In data set [1], this compound had a pEC50 of 8.52.

In the case of `CC(C)Oc1ccc(CCCOc2nn(C)cc2CCC(=O)O)c(Oc2ncc(C(F)(F)F)cc2Cl)c1` [Example 145, 3-{3-[3-(2-{[3-chloro-5-(trifluoromethyl)pyridin-2-yl]oxy}-4-isopropoxyphenyl)propoxy]-1-methyl-1H-pyrazol-4-yl}propanoic acid], in data set [1], the pEC50 was 8.59.

Take `CC(C)Oc1cc(CCCOc2ccc3ccccc3c2CC(=O)O)n(Cc2ccc(Cl)cc2Cl)n1` [Example 85, (2-{3-[1-(2,4-dichlorobenzyl)-3-isopropoxy-1H-pyrazol-5-yl]propoxy}-1-naphthyl)acetic acid]: the melting point was 120 to 122 °C. Also, the pEC50 in data set [1] was 8.59.

In turn, `Cc1nc(OCCCc2cc(OC(C)C)nn2Cc2ccc(Cl)cc2Cl)c(CC(=O)O)s1` [Example 36, (4-{3-[1-(2,4-dichlorobenzyl)-3-isopropoxy-1H-pyrazol-5-yl]propoxy}-2-methyl-1,3-thiazol-5-yl)acetic acid] had a melting point of 75 to 77 °C. For the same compound, in data set [1], the negative-log EC50 (pEC50) is 7.70.

`CC(C)Oc1ccc(CCCOc2cc(CCC(=O)O)n(Cc3ccccc3)n2)c(Oc2ncc(C(F)(F)F)cc2Cl)c1` [Example 137, 3-{1-benzyl-3-[3-(2-{[3-chloro-5-(trifluoromethyl)pyridin-2-yl]oxy}-4-isopropoxyphenyl)propoxy]-1H-pyrazol-5-yl}propanoic acid]: the melting point was in the range of 99 to 100 °C. This compound also had a pEC50 in data set [1] of 9.21.

Compound `CCS(=O)(=O)CCOc1cc(CCCOc2nn(Cc3ccccc3)cc2CC(=O)O)n(Cc2ccc(Cl)cc2Cl)n1` [Example 98, [1-benzyl-3-(3-{1-(2,4-dichlorobenzyl)-3-[2-(ethylsulfonyl)ethoxy]-1H-pyrazol-5-yl}propoxy)-1H-pyrazol-4-yl]acetic acid] gave a melting point of 100.4 to 101.4 °C. The same compound showed a pEC50 in data set [1] of 8.29.

(Values after patent publication US20080051418A1, “Arylalkanoic Acid Derivative” (priority 2004, published 2008).)
